Assay results as given in PubChem BioAssay (NCI).
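Step 1: Grow cells in 96-well plates. Step 2: Expose to compound for 48 hours at 5 concentrations. Step 3: Interpolate endpoints linearly; if unreached, use highest concentration. At the GI50, growth is halved. TGI denotes the concentration required for complete inhibition of growth.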

Test system: 786-0 renal
Test: inhibition of tumour cell growth, NCI panel, 48 h

Compound	TGI [µM]
c1nc(OCC2CCCCC2)c2[nH]cnc2n1	> 100
Oc1cn(-c2ccc(Cl)cc2)nc1-c1nnc(-c2ccccc2)o1	12.2
O=C(O)CC(CC(=O)O)C(=O)O	> 100
CC(=O)N(C)c1ccc(Nc2cc(C)[nH]c3ccc4ncnc4c23)cc1	18.8
FC(F)(F)c1ccc(N=C/C=C(/Nc2ccc(C(F)(F)F)cc2)c2ccc(Cl)cc2)cc1	37.9
CCCCN(CCCC)CC(O)c1cc(-c2ccc(C(F)(F)F)cc2)nc(-c2ccc(C(F)(F)F)cc2)c1 (centres undefined)	> 100
NS(=O)(=O)c1ccc(N=Nc2nc3[nH]c(=O)[nH]c(=O)c3[nH]2)cc1	> 100
CC1=CC(C)C/C=C/C2C3OC3(C)C(C)C3C(Cc4c[nH]c5ccccc45)NC(=O)C23C(=O)C=CC(=O)C1O (centres undefined)	10.8
CCOc1cc2c(OCc3ccccc3)cc3c4cc(OC)c(OC)cc4c[n+](C)c3c2cc1OC	26.6
C/C(=N\NC(=S)N1CCCCC1)c1nc2ncccc2[nH]1	> 100

Test system: BT-549 breast
Test: inhibition of tumour cell growth, NCI panel, 48 h

Compound	TGI [µM]	GI50 [µM]
c1nc(OCC2CCCCC2)c2[nH]cnc2n1	> 100	
Oc1cn(-c2ccc(Cl)cc2)nc1-c1nnc(-c2ccccc2)o1	> 91.9	4.24
O=C(O)CC(CC(=O)O)C(=O)O	> 100	
CC(=O)N(C)c1ccc(Nc2cc(C)[nH]c3ccc4ncnc4c23)cc1	24.5	
NS(=O)(=O)c1ccc(N=Nc2nc3[nH]c(=O)[nH]c(=O)c3[nH]2)cc1	> 100	
CC1=CC(C)C/C=C/C2C3OC3(C)C(C)C3C(Cc4c[nH]c5ccccc45)NC(=O)C23C(=O)C=CC(=O)C1O (centres undefined)	10.3	
Cc1cc(C)n(C(=C(C(Cl)=C(Cl)Cl)[N+](=O)[O-])n2nc(C)cc2C)n1	16.3	
CCOc1cc2c(OCc3ccccc3)cc3c4cc(OC)c(OC)cc4c[n+](C)c3c2cc1OC	4.72	
C/C(=N\NC(=S)N1CCCCC1)c1nc2ncccc2[nH]1	28.3	

Test system: HCC-2998 colon
Test: inhibition of tumour cell growth, NCI panel, 48 h

Compound	TGI [µM]	GI50 [µM]
c1nc(OCC2CCCCC2)c2[nH]cnc2n1	> 100	
Oc1cn(-c2ccc(Cl)cc2)nc1-c1nnc(-c2ccccc2)o1	5.91	0.739
COc1ccc(N2C(=O)/C(=C(\C)c3cc4ccccc4oc3=O)N=C2c2cc([N+](=O)[O-])ccc2Cl)cc1	> 100	
O=C(O)CC(CC(=O)O)C(=O)O	> 100	
CC(=O)N(C)c1ccc(Nc2cc(C)[nH]c3ccc4ncnc4c23)cc1	22.3	
CCCCN(CCCC)CC(O)c1cc(-c2ccc(C(F)(F)F)cc2)nc(-c2ccc(C(F)(F)F)cc2)c1 (centres undefined)	65.6	
CC(C)(C)[Si](OC1CC(n2cnc3c(N)ncnc32)OC1CO)(c1ccccc1)c1ccccc1 (centres undefined)	> 100	
NS(=O)(=O)c1ccc(N=Nc2nc3[nH]c(=O)[nH]c(=O)c3[nH]2)cc1	> 100	
CC1=CC(C)C/C=C/C2C3OC3(C)C(C)C3C(Cc4c[nH]c5ccccc45)NC(=O)C23C(=O)C=CC(=O)C1O (centres undefined)	21.7	
O=C(O)c1ccc(Nc2c3ccccc3nc3ccccc23)cc1	> 100	
Cc1cc(C)n(C(=C(C(Cl)=C(Cl)Cl)[N+](=O)[O-])n2nc(C)cc2C)n1	12.5	
COc1ccc(C2COc3cc(OC(C)=O)c(OC(C)=O)cc3C2)cc1 (centres undefined)	48.3	
CCOc1cc2c(OCc3ccccc3)cc3c4cc(OC)c(OC)cc4c[n+](C)c3c2cc1OC	21.6	
C/C(=N\NC(=S)N1CCCCC1)c1nc2ncccc2[nH]1	> 100	

Test system: HCT-15 colon
Test: inhibition of tumour cell growth, NCI panel, 48 h

Compound	TGI [µM]
c1nc(OCC2CCCCC2)c2[nH]cnc2n1	> 100
Oc1cn(-c2ccc(Cl)cc2)nc1-c1nnc(-c2ccccc2)o1	27.2
O=C(O)CC(CC(=O)O)C(=O)O	> 100
CC(=O)N(C)c1ccc(Nc2cc(C)[nH]c3ccc4ncnc4c23)cc1	93.3
FC(F)(F)c1ccc(N=C/C=C(/Nc2ccc(C(F)(F)F)cc2)c2ccc(Cl)cc2)cc1	25
CCCCN(CCCC)CC(O)c1cc(-c2ccc(C(F)(F)F)cc2)nc(-c2ccc(C(F)(F)F)cc2)c1 (centres undefined)	> 100
NS(=O)(=O)c1ccc(N=Nc2nc3[nH]c(=O)[nH]c(=O)c3[nH]2)cc1	> 100
CC1=CC(C)C/C=C/C2C3OC3(C)C(C)C3C(Cc4c[nH]c5ccccc45)NC(=O)C23C(=O)C=CC(=O)C1O (centres undefined)	8.67
O=C(O)c1ccc(Nc2c3ccccc3nc3ccccc23)cc1	> 100
Cc1cc(C)n(C(=C(C(Cl)=C(Cl)Cl)[N+](=O)[O-])n2nc(C)cc2C)n1	11.4
COc1ccc(C2COc3cc(OC(C)=O)c(OC(C)=O)cc3C2)cc1 (centres undefined)	52.9
CCOc1cc2c(OCc3ccccc3)cc3c4cc(OC)c(OC)cc4c[n+](C)c3c2cc1OC	> 100
C/C(=N\NC(=S)N1CCCCC1)c1nc2ncccc2[nH]1	> 100

Test system: HS 578T breast
Test: inhibition of tumour cell growth, NCI panel, 48 h

Compound	TGI [µM]
c1nc(OCC2CCCCC2)c2[nH]cnc2n1	> 100
Oc1cn(-c2ccc(Cl)cc2)nc1-c1nnc(-c2ccccc2)o1	40.8
O=C(O)CC(CC(=O)O)C(=O)O	> 100
CC(=O)N(C)c1ccc(Nc2cc(C)[nH]c3ccc4ncnc4c23)cc1	35.5
FC(F)(F)c1ccc(N=C/C=C(/Nc2ccc(C(F)(F)F)cc2)c2ccc(Cl)cc2)cc1	38.2
NS(=O)(=O)c1ccc(N=Nc2nc3[nH]c(=O)[nH]c(=O)c3[nH]2)cc1	> 100
CC1=CC(C)C/C=C/C2C3OC3(C)C(C)C3C(Cc4c[nH]c5ccccc45)NC(=O)C23C(=O)C=CC(=O)C1O (centres undefined)	56.5
Cc1cc(C)n(C(=C(C(Cl)=C(Cl)Cl)[N+](=O)[O-])n2nc(C)cc2C)n1	20.6
C/C(=N\NC(=S)N1CCCCC1)c1nc2ncccc2[nH]1	> 100

Test system: IGROV1 ovarian
Test: inhibition of tumour cell growth, NCI panel, 48 h

Compound	TGI [µM]
c1nc(OCC2CCCCC2)c2[nH]cnc2n1	> 100
Oc1cn(-c2ccc(Cl)cc2)nc1-c1nnc(-c2ccccc2)o1	> 53.4
COc1ccc(N2C(=O)/C(=C(\C)c3cc4ccccc4oc3=O)N=C2c2cc([N+](=O)[O-])ccc2Cl)cc1	> 100
O=C(O)CC(CC(=O)O)C(=O)O	> 100
CC(=O)N(C)c1ccc(Nc2cc(C)[nH]c3ccc4ncnc4c23)cc1	64.4
FC(F)(F)c1ccc(N=C/C=C(/Nc2ccc(C(F)(F)F)cc2)c2ccc(Cl)cc2)cc1	25.5
CCCCN(CCCC)CC(O)c1cc(-c2ccc(C(F)(F)F)cc2)nc(-c2ccc(C(F)(F)F)cc2)c1 (centres undefined)	> 100
CC(C)(C)[Si](OC1CC(n2cnc3c(N)ncnc32)OC1CO)(c1ccccc1)c1ccccc1 (centres undefined)	48
NS(=O)(=O)c1ccc(N=Nc2nc3[nH]c(=O)[nH]c(=O)c3[nH]2)cc1	> 100
CC1=CC(C)C/C=C/C2C3OC3(C)C(C)C3C(Cc4c[nH]c5ccccc45)NC(=O)C23C(=O)C=CC(=O)C1O (centres undefined)	24.6
O=C(O)c1ccc(Nc2c3ccccc3nc3ccccc23)cc1	> 100
Cc1cc(C)n(C(=C(C(Cl)=C(Cl)Cl)[N+](=O)[O-])n2nc(C)cc2C)n1	14.9
COc1ccc(C2COc3cc(OC(C)=O)c(OC(C)=O)cc3C2)cc1 (centres undefined)	55.9
C/C(=N\NC(=S)N1CCCCC1)c1nc2ncccc2[nH]1	> 100

Test system: M14 melanoma
Test: inhibition of tumour cell growth, NCI panel, 48 h

Compound	TGI [µM]
c1nc(OCC2CCCCC2)c2[nH]cnc2n1	> 100
Oc1cn(-c2ccc(Cl)cc2)nc1-c1nnc(-c2ccccc2)o1	11.7
COc1ccc(N2C(=O)/C(=C(\C)c3cc4ccccc4oc3=O)N=C2c2cc([N+](=O)[O-])ccc2Cl)cc1	86.3
O=C(O)CC(CC(=O)O)C(=O)O	> 100
CC(=O)N(C)c1ccc(Nc2cc(C)[nH]c3ccc4ncnc4c23)cc1	21.5
FC(F)(F)c1ccc(N=C/C=C(/Nc2ccc(C(F)(F)F)cc2)c2ccc(Cl)cc2)cc1	30.5
CCCCN(CCCC)CC(O)c1cc(-c2ccc(C(F)(F)F)cc2)nc(-c2ccc(C(F)(F)F)cc2)c1 (centres undefined)	> 100
CC(C)(C)[Si](OC1CC(n2cnc3c(N)ncnc32)OC1CO)(c1ccccc1)c1ccccc1 (centres undefined)	> 100
NS(=O)(=O)c1ccc(N=Nc2nc3[nH]c(=O)[nH]c(=O)c3[nH]2)cc1	> 100
CC1=CC(C)C/C=C/C2C3OC3(C)C(C)C3C(Cc4c[nH]c5ccccc45)NC(=O)C23C(=O)C=CC(=O)C1O (centres undefined)	16.8
Cc1cc(C)n(C(=C(C(Cl)=C(Cl)Cl)[N+](=O)[O-])n2nc(C)cc2C)n1	15.5
CCOc1cc2c(OCc3ccccc3)cc3c4cc(OC)c(OC)cc4c[n+](C)c3c2cc1OC	9.73
C/C(=N\NC(=S)N1CCCCC1)c1nc2ncccc2[nH]1	47.7

Test system: MCF7 breast
Test: inhibition of tumour cell growth, NCI panel, 48 h

Compound	TGI [µM]
Oc1cn(-c2ccc(Cl)cc2)nc1-c1nnc(-c2ccccc2)o1	7.16
O=C(O)CC(CC(=O)O)C(=O)O	> 100
CC(=O)N(C)c1ccc(Nc2cc(C)[nH]c3ccc4ncnc4c23)cc1	26
FC(F)(F)c1ccc(N=C/C=C(/Nc2ccc(C(F)(F)F)cc2)c2ccc(Cl)cc2)cc1	48
NS(=O)(=O)c1ccc(N=Nc2nc3[nH]c(=O)[nH]c(=O)c3[nH]2)cc1	> 100
CC1=CC(C)C/C=C/C2C3OC3(C)C(C)C3C(Cc4c[nH]c5ccccc45)NC(=O)C23C(=O)C=CC(=O)C1O (centres undefined)	27.1
O=C(O)c1ccc(Nc2c3ccccc3nc3ccccc23)cc1	> 100
Cc1cc(C)n(C(=C(C(Cl)=C(Cl)Cl)[N+](=O)[O-])n2nc(C)cc2C)n1	8.2
COc1ccc(C2COc3cc(OC(C)=O)c(OC(C)=O)cc3C2)cc1 (centres undefined)	62.7
CCOc1cc2c(OCc3ccccc3)cc3c4cc(OC)c(OC)cc4c[n+](C)c3c2cc1OC	4.44
C/C(=N\NC(=S)N1CCCCC1)c1nc2ncccc2[nH]1	14

Test system: MDA-MB-231 breast
Test: inhibition of tumour cell growth, NCI panel, 48 h

Compound	TGI [µM]
c1nc(OCC2CCCCC2)c2[nH]cnc2n1	> 100
Oc1cn(-c2ccc(Cl)cc2)nc1-c1nnc(-c2ccccc2)o1	36.1
O=C(O)CC(CC(=O)O)C(=O)O	> 100
CC(=O)N(C)c1ccc(Nc2cc(C)[nH]c3ccc4ncnc4c23)cc1	30.4
FC(F)(F)c1ccc(N=C/C=C(/Nc2ccc(C(F)(F)F)cc2)c2ccc(Cl)cc2)cc1	37.7
CCCCN(CCCC)CC(O)c1cc(-c2ccc(C(F)(F)F)cc2)nc(-c2ccc(C(F)(F)F)cc2)c1 (centres undefined)	> 100
NS(=O)(=O)c1ccc(N=Nc2nc3[nH]c(=O)[nH]c(=O)c3[nH]2)cc1	> 100
CC1=CC(C)C/C=C/C2C3OC3(C)C(C)C3C(Cc4c[nH]c5ccccc45)NC(=O)C23C(=O)C=CC(=O)C1O (centres undefined)	16.9
Cc1cc(C)n(C(=C(C(Cl)=C(Cl)Cl)[N+](=O)[O-])n2nc(C)cc2C)n1	27.8
CCOc1cc2c(OCc3ccccc3)cc3c4cc(OC)c(OC)cc4c[n+](C)c3c2cc1OC	6.65
C/C(=N\NC(=S)N1CCCCC1)c1nc2ncccc2[nH]1	> 100

Test system: MDA-N
Test: inhibition of tumour cell growth, NCI panel, 48 h

Compound	TGI [µM]
c1nc(OCC2CCCCC2)c2[nH]cnc2n1	> 100
O=C(O)CC(CC(=O)O)C(=O)O	> 100
CC(=O)N(C)c1ccc(Nc2cc(C)[nH]c3ccc4ncnc4c23)cc1	23.9
